Results taken from patent publication US5142046A, “Optically active pyridobenzoxazine derivatives and intermediates thereof” (Daiichi Pharmaceutical Co., Ltd., priority 1985, dated 1992).
≈ marks a conversion by molar mass, not a printed value.

What was measured:
E. coli, NIHJ = test: Minimum Inhibitory Concentration (MIC), standard method of The Japan Society of Chemotherapy; details: Escherichia coli, read-out: Minimum Inhibitory Concentration (MIC)
Excerpt: (§1) The test method was in accordance with the standard method specified by The Japan Society of Chemotherapy.

K. pneumoniae, Type 2 = test: as above; details: Klebsiella pneumoniae, TYPE2, read-out: Minimum Inhibitory Concentration (MIC)
Excerpt: as §1

Ser. marcescens, 10100 = test: as above; details: Serratia marcescens, 10100, read-out: Minimum Inhibitory Concentration (MIC)
Excerpt: as §1

Ps. aeruginosa, 32104 = test: as above; details: Pseudomonas aeruginosa, 32104, read-out: Minimum Inhibitory Concentration (MIC)
Excerpt: as §1

Ps. aeruginosa, 32121 = test: as above; details: Pseudomonas aeruginosa, 32121, read-out: Minimum Inhibitory Concentration (MIC)
Excerpt: as §1

Ps. maltophilia, IID1275 = test: as above; details: Stenotrophomonas maltophilia, IID1275, read-out: Minimum Inhibitory Concentration (MIC)
Excerpt: as §1

S. aureaus, Smith = test: as above; details: read-out: Minimum Inhibitory Concentration (MIC)
Excerpt: as §1

S. aureaus, 209P = test: as above; details: read-out: Minimum Inhibitory Concentration (MIC)
Excerpt: as §1

Str. pyogenes, G-36 = test: as above; details: Streptococcus pyogenes, G36, read-out: Minimum Inhibitory Concentration (MIC)
Excerpt: as §1

various microorganisms = test: antimicrobial activity compared with racemic Ofloxacin (summary); assay type: cell-based; details: relative to (±)-compound
male mice = test: acute intravenous toxicity in male mice; details: for Day after treatment 1 (number of mice dead) / Day after treatment 2 (number of mice dead) / Day after treatment 3 (number of mice dead) / Mortality: i.v.; for Day after treatment 1 (number of mice dead) / Day after treatment 2 (number of mice dead) / Day after treatment 3 (number of mice dead): 5 male mice; for Day after treatment 1 (number of mice dead): day 1; for Day after treatment 2 (number of mice dead): day 2; for Day after treatment 3 (number of mice dead): day 3; for Mortality: male mice; for acute toxicity (LD50) compared with racemate, in words: mice, intravenous, relative to (±)-compound
in vivo = details: mouse, iv

| SMILES | MIC (E. coli, NIHJ) [µg/mL] | MIC (K. pneumoniae, Type 2) [µg/mL] | MIC (Ser. marcescens, 10100) [µg/mL] | MIC (Ps. aeruginosa, 32104) [µg/mL] | MIC (Ps. aeruginosa, 32121) [µg/mL] | MIC (Ps. maltophilia, IID1275) [µg/mL] | MIC (S. aureaus, Smith) [µg/mL] | MIC (S. aureaus, 209P) [µg/mL] | MIC (Str. pyogenes, G-36) [µg/mL] | Day after treatment 1 (number of mice dead) (male mice; 100 mg/kg) | Day after treatment 2 (number of mice dead) (male mice; 100 mg/kg) | Day after treatment 3 (number of mice dead) (male mice; 100 mg/kg) | Mortality (male mice; 100 mg/kg) | Day after treatment 1 (number of mice dead) (male mice; 200 mg/kg) | Day after treatment 2 (number of mice dead) (male mice; 200 mg/kg) | Day after treatment 3 (number of mice dead) (male mice; 200 mg/kg) | Mortality (male mice; 200 mg/kg) | Day after treatment 1 (number of mice dead) (male mice; 400 mg/kg) | Day after treatment 2 (number of mice dead) (male mice; 400 mg/kg) | Day after treatment 3 (number of mice dead) (male mice; 400 mg/kg) | other results |
| --- | --- | --- | --- | --- | --- | --- | --- | --- | --- | --- | --- | --- | --- | --- | --- | --- | --- | --- | --- | --- | --- |
| CCN1CCN(c2c(F)cc3c(=O)c(C(=O)O)cn4c3c2OC[C@@H]4C)CC1 [Example 17, (S)-(-)-9-Fluoro-3-Methyl-10-(4-Ethyl-1-Piperazinyl)-7-Oxo-2,3-Dihydro-7H-Pyrido[1,2,3-de][1,4]Benzoxazine-6-Carboxylic Acid] | < 0.1 | < 0.1 | < 0.1 | 0.39 (≈ 1.04 µM) | 0.1 (≈ 0.266 µM) | 0.1 (≈ 0.266 µM) | < 0.1 | 0.1 (≈ 0.266 µM) | 1.56 (≈ 4.16 µM) |  |  |  |  |  |  |  |  |  |  |  |  |
| C[C@H]1COc2c(N3CCN(C)CC3)c(F)cc3c(=O)c(C(=O)O)cn1c23 [S(-)-Ofloxacin, S-(-)-9-Fluoro-3-Methyl-10-(4-Methyl-1-Piperazinyl)-7-oxo-2,3-Dihydro-7H-Pyrido[1,2,3-de][1,4]Benzoxazine-6-Carboxylic Acid] | < 0.1 | < 0.1 | < 0.1 | 0.39 (≈ 1.08 µM) | 0.1 (≈ 0.277 µM) | 0.39 (≈ 1.08 µM) | 0.1 (≈ 0.277 µM) | 0.2 (≈ 0.553 µM) | 0.78 (≈ 2.16 µM) | 0 | 0 | 0 | 0/5 | 0 | 0 | 0 | 0/5 | 5 | 0 | 0 | antimicrobial activity, times higher than that of the (±)-compound (various microorganisms): about 2 times; LD50 (male mice; i.v. in mice): 244 mg/kg; Mortality (male mice; 400 mg/kg): 5/5; acute toxicity (LD50) compared with racemate, in words (male mice): weaker |
| CC1COc2c(N3CCN(C)CC3)c(F)cc3c(=O)c(C(=O)O)cn1c23 (racemic) [Racemic Ofloxacin, (±)-9-fluoro-3-methyl-10-(4-methyl-1-piperazinyl)-7-oxo-2,3-dihydro-7H-pyrido[1,2,3-de][1,4]-benzoxazine-6-carboxylic acid, reference compound] | < 0.1 | 0.1 (≈ 0.277 µM) | 0.1 (≈ 0.277 µM) | 0.78 (≈ 2.16 µM) | 0.2 (≈ 0.553 µM) | 0.78 (≈ 2.16 µM) | 0.2 (≈ 0.553 µM) | 0.39 (≈ 1.08 µM) | 1.56 (≈ 4.32 µM) | 0 | 0 | 0 | 0/5 | 2 | 0 | 0 | 2/5 | 5 | 0 | 0 | LD50 (in vivo): 203 mg/kg; Mortality (male mice; 400 mg/kg): 5/5 |
| C[C@@H]1COc2c(N3CCN(C)CC3)c(F)cc3c(=O)c(C(=O)O)cn1c23 [R(+)-Ofloxacin] | 0.39 (≈ 1.08 µM) | 1.56 (≈ 4.32 µM) | 1.56 (≈ 4.32 µM) | 12.5 (≈ 34.6 µM) | 6.25 (≈ 17.3 µM) | 12.5 (≈ 34.6 µM) | 6.25 (≈ 17.3 µM) | 25 (≈ 69.2 µM) | < 100 | 0 | 0 | 0 | 0/5 | 3 | 0 | 0 | 3/5 | 5 | 0 | 0 | Mortality (male mice; 400 mg/kg): 5/5; acute toxicity (LD50) compared with racemate, in words (male mice): substantially equal to that of the (±)-compound |
